Measured values reported in PMC7838189, “Natural podophyllotoxin analog 4DPG attenuates EMT and colorectal cancer progression via activation of checkpoint kinase 2” (Cell Death Discovery, 2021).

How the values were obtained:
SW-620/5-FU-R cells [1] = assay: Immunocytochemistry of Vimentin; type: cell-based; details: PV1019 alone, 48 h
From the text: 4DPG, a podophyllotoxin class of natural product anticancer compound (Supplementary Fig. S2A) has been recently described by our research group for its potent antitumor and anti-metastatic properties against aggressive cancers[31],[32]. Further, 4DPG augments phosphorylation and activation of Chk2 (Thr68) leading to suppression of EMT and invasiveness of p53-defective cancer cells. To investigate the effect of 4DPG on phosphorylation and expression levels of Chk2 in HCT-116/5-FU-R, SW-620/5-FU-R, and HT-29/5-FU-R cells, we treated these cells for 48 h with increasing concentrations of the compound, and whole-cell lysates were subjected to western blotting analysis. […] To determine the effect of 4DPG on the invasion abilities of these 5-FU-R cells, we performed in situ fluorescent gelatin degradation assay following our pre-standardized protocol[31],[37]. In physiological conditions, this assay mimics the extracellular matrix degradation by aggressive tumor cells undergoing invasion–metastasis process.
(§1) To examine whether 4DPG-mediated repression of Vimentin and invasiveness is a Chk2-dependent process, we performed genetic silencing of endogenous Chk2 in the 5-FU-R cells using target-specific SiRNAs.
(§2) Fig. 3 Chk2-dependent role of 4DPG in modulating p53 and repressing Vimentin expression in 5-FU-R cells. A Immunocytochemistry results showing the Vimentin expression level in SW-620/5-FU-R cells treated/transfected with scramble, SiChk2, scramble plus 4DPG, SiChk2 plus 4DPG, vehicle, PV1019, 4DPG, and PV1019 plus 4DPG for 48 h. Scale bars: 50 µm. […] C Matrigel invasion assay results showing invaded HCT-116/5-FU-R and SW-620/5-FU-R cells following 48 h of transient transfection with GFP and GFP-Chk2 plasmid construct. Scale bars: 50 µm. D Quantification of the number of invaded cells per field from the above experimental conditions. n = 3, error bars, mean ± SD; *P < 0.05, ***P < 0.001. E Immunocytochemistry results displaying Vimentin expression levels in HCT-116/5-FU-R and SW-620/5-FU-R cells after 48 h of transient transfection with pCDNA3 and/or HA-Chk2 plasmid construct. Scale bars: 50 µm. F Immunoprecipitation with Vimentin or p53 followed by western blotting analysis of p53 in SW-620/5-FU-R cells treated with vehicle and/or 4DPG (300 nM) for 48 h. G Cytosolic (left panel) and nuclear (right panel) extracts of SW-620/5-FU-R cells treated with vehicle and/or 4DPG (300 nM) for 48 h showing protein expression of Vimentin and p53. Tubulin and lamin expression was considered as endogenous loading controls for cytosolic and nuclear fractions, respectively.
We followed the standard protocol with some modifications for immunocytochemistry[56],[58]. In brief, cells, at a density of 4 × 10^5 cells/well, were seeded over the sterile coverslips placed in six-well plates. Following the respective treatment, cells were washed thrice with PBS. Next, the cells were fixed with 4% paraformaldehyde (pH = 7.4) for 15 min, permeabilized with 0.3% Triton X-100 for 10 min, and then blocked with 1% goat serum for 30 min. Consequently, the cells were incubated with anti-Vimentin antibody overnight at 4 °C, at a dilution of 1:100, followed by washing with PBST and further incubation with secondary anti-rabbit Alexa Fluor 488 (1:750 dilution). After subsequent washing and mounting, the images were captured at ×20 magnification under Floid Cell Imaging Station (Invitrogen).

HCT-116/5-FU-R cells [2] = assay: Matrigel invasion assay; type: cell-based; details: PV1019-treated, 48 h
From the text: as §1
as §2, with “G Cytosolic (left panel) and nuclear (right panel) extracts of SW-620/5-FU-R cells treated with vehicle and/or 4DPG (300 nM) for 48 h showing protein expression of Vimentin and p53. Tubulin and lamin expression was considered as endogenous loading controls for cytosolic and nuclear fractions, respectively.” left out

[3] = tested on: HCT-116, SW-620, and HT-29 cells; assay: Western blotting of p-Vimentin/Vimentin after transient 5-FU treatment; type: cell-based; details: 5-FU 1 µM (sub-toxic), 24 h; range over HCT-116, SW-620, HT-29 cells; densitometry
From the text: Vimentin belongs to the family of intermediate filament proteins that are known to function in maintaining the shape as well as the integrity of the normal mesenchymal cells[33],[34]. However, it has been established to regulate the cell shape and migration capability during EMT, a phenomenon critical to metastasis of cancer cells[35],[36]. To investigate any plausible contribution of Vimentin to 5-FU resistance in CRC, we treated a panel of three epithelial colorectal carcinoma cell lines (HCT-116, SW-620, and HT-29) with increasing concentrations of the said drug, transiently (24 h). Western blots were generated for the whole-cell lysates obtained from the above set of experiments. Since the phosphorylated Vimentin is an important signal transducer during the EMT process, we analyzed p-Vimentin (ser38) as well as total Vimentin levels in these lysates.
Fig. 1 Vimentin activation and the onset of EMT in CRC cells transiently exposed to 5-FU, as well as in 5-FU-resistant population. […] F Quantification of the number of invaded cells per field from the above invasion assay experiment. n = 3, error bars: mean ± SD; ***P < 0.001. […]
We adhered to the previously published protocol for western blotting. […] Bradford assay was performed to quantify the protein concentration. […]

HCT-116/5-FU-R cells [4] = assay: Acquired 5-FU resistance (MTT cytotoxicity assay); type: cell-based; details: cells selected with increasing 5-FU for at least 20 weeks
Procedure: (§3) Previously described procedure by Shukla et al. was followed with minor modifications. In brief, wild-type CRC cells (HCT-116, SW-620, and HT-29) were cultured with increasing concentrations of 5-FU for at least 20 weeks. The acquired drug resistance was tested periodically by determining the half maximal inhibitory concentration (IC50) of 5-FU through MTT cytotoxicity assays.
(§4) The experiments were performed using the wild-type and 5-FU-RCRC cells following our standardized protocols, as described previously[56],[57].

HT-29/5-FU-R cells = assay: Acquired 5-FU resistance (MTT cytotoxicity assay); type: cell-based; details: cells selected with increasing 5-FU for at least 20 weeks
Procedure: as §3, §4

SW-620/5-FU-R cells [5] = assay: Acquired 5-FU resistance (MTT cytotoxicity assay); type: cell-based; details: cells selected with increasing 5-FU for at least 20 weeks
Procedure: as §3, §4

[6] = tested on: orthotopic rat colorectal carcinoma; details: 25 mg/kg thrice a week for 3 weeks
From the text: To examine the antitumor and anti-metastatic efficacy of 4DPG in vivo, we employed a carcinogen-induced orthotopic rat colorectal carcinoma model. […] The schematic representation briefly describes the steps involved in the generation of orthotopic colorectal tumors along with the treatment strategy and further analysis (details in “Materials and methods”). The animals were euthanized at the end of the experiment and evaluated for tumor and metastatic burden (Fig. 4A). […] To validate whether our in vitro observations on mechanistic inhibition of EMT and invasion by 4DPG hold true in vivo, we performed immunohistochemical analysis of the tumor tissues acquired from the saline and 4DPG-treated animal groups.
A Model depicting the procedure adopted for generating the carcinogen-induced orthotopic rat CRC model, treatment strategies of 4DPG, evaluation of tumor burden, and further biochemical analysis. B Representative images of large bowel showing the colorectal tumor growth in saline, 5-FU (25 mg/kg), and 4DPG (25 mg/kg) treated groups of animals. C, D Quantification of tumor volume and number of polyps per rat in above groups of animals. n = 6 rats per group, error bars: mean ± SD; *P < 0.05, **P < 0.01, ***P < 0.001. E Representative images of the lungs dissected from the above groups of animals showing metastatic tumor burden. Orange arrows indicating bumps of secondary tumors over each lobe of lungs. F, G Quantification of a number of macroscopic secondary tumors over the lung tissues and lung weight in the above groups of animals. n = 6 rats per group, error bars, mean ± SD; **P < 0.01, ***P < 0.001. […] Scale bar: 50 µm. I Western blots depicting expression of p-Chk2 (Thr68), Chk2, p53, p-Vimentin (Ser38), and Vimentin in tumor tissues obtained from saline- and 4DPG-treated groups of animals. β-Actin expression was taken as endogenous loading control. J Densitometry analysis of the above western blot bands portraying relative protein expression of the markers presented. n = 3, error bars: mean ± SD; **P < 0.01, ***P < 0.001.
Animal studies were performed following the guidelines approved by Institutional Animal Ethics Committee (IAEC No. 51/02/15) of CSIR-Indian Institute of Integrative Medicine, Jammu, India. The experiment was performed according to our standardized protocol described previously with necessary modifications. Five-weeks-old healthy male Wistar rats (body weight 150–200 g) were maintained in aseptic condition with free access to food and water. Animals were randomized into three groups, with six animals per group. All the rats received intrarectal instillation of 0.5 mL of freshly prepared 0.4% aqueous solution of N-methyl-N-nitrosourea (MNU) thrice a week for 3 weeks, for the orthotopic induction of colorectal tumors. The solution was injected using sterile syringe with attached 8-cm long rubber catheter tube inserted two-thirds into the colon lumen through anal orifice, as described previously. The animals were kept under continuous monitoring, and the body weight was measured once per week. Following 22 weeks after the initiation of MNU administration, treatment regimens were started by administering 5-FU (25 mg/kg), and 4DPG (25 mg/kg) thrice a week for 3 weeks. The control and treatment groups of animals were dosed separately by three independent investigators and the outcomes were assessed by a fourth investigator blind about the dosing process and treatment regimen.

| SMILES | Vimentin level (immunocytochemistry) (SW-620/5-FU-R cells [1]) | number of invaded cells (HCT-116/5-FU-R cells [2]) | boost in p-Vimentin (ser38) [3] | increase in Vimentin expression level [3] | acquired resistance up to (5-FU concentration) (HCT-116/5-FU-R cells [4]) | acquired resistance up to (5-FU concentration) (HT-29/5-FU-R cells) | acquired resistance up to (5-FU concentration) (SW-620/5-FU-R cells [5]) | lung metastases [6] | average number of polyps ([6]; control group 16) | mean tumor volume ([6]; saline control 820.6 mm^3) |
| --- | --- | --- | --- | --- | --- | --- | --- | --- | --- | --- |
| CC(=NNC(=N)N)c1ccc(NC(=O)c2cc3cccc([N+](=O)[O-])c3[nH]2)cc1 [PV1019, 7-nitro-1H-indole-2-carboxylic acid {4-[1-(guanidinohydrazone)-ethyl]-phenyl}-amide, reference compound] | increased Vimentin level | remarkable increase |  |  |  |  |  |  |  |  |
| O=c1[nH]cc(F)c(=O)[nH]1 [5-FU, 5-fluorouracil] |  |  | 2–7.8 fold | 2.1–8.5 fold | up to 50 µM | ≤ 45 µM | ≤ 60 µM | could not restrict the metastatic spread | 8 | 231 mm^3 |
